Assay results from patent US20070117770A1, “Human ribosomal DNA (rDNA) and ribosomal RNA (rRNA) nucleic acids and uses thereof” (Cylene Pharmaceuticals, Inc., priority 2005, published 2007).
Values joined by “and” are separate entries in the source; they are usually repeats but may differ in a detail not shown here. Equal values may be shown once. Read-outs that look alike come from different tables or passages of the source.

Key:
Test in all cases: Protein kinase inhibition assay
Assay type in all cases: biochemical
[1] = biological target: HIPK2(h) (Homo sapiens, UniProt Q9H2X6); conditions: read-out: percent residual activity of HIPK2(h)
Procedure: (§1) Certain compounds were tested for activity in protein kinase inhibition assays. All substrates were dissolved and diluted to working stocks in de-ionized water, apart from histone H1 (10× working stock in 20 mM MOPS pH 7.0), PDKtide (10× working stock in 50 mM Tris pH 7.0) ATF2 (which is typically stored at a 20× working stock in 50 mM Tris pH 7.5, 150 mM NaCl, 0.1 mM EGTA, 0.03% Brij-35, 50% glycerol, 1 mM benzamidine, 0.2 mM PMSF and 0.1% R-mercaptoethanol), KKLNRTLSFAEPG (SEQ ID NO:203) and RRRLSFAEPG (SEQ ID NO:204) (50 mM HEPES pH 7.4) and GGEEEEYFELVKKKK (SEQ ID NO:205) (20 mM MOPS pH 7.0). All kinases were pre-diluted to a 10× working concentration prior to addition into the assay. The composition of the dilution buffer for each kinase is detailed below.
(§2) In a final reaction volume of 25 μl, HIPK2 (h) (5-10 mU) is incubated with 8 mM MOPS pH 7.0, 0.2 mM EDTA, 0.33 mg/ml myelin basic protein, 10 mM MgAcetate and [gamma-33P-ATP] (specific activity approx. 500 cpm/pmol, concentration as required). The reaction is initiated by the addition of the MgATP mix. After incubation for 40 minutes at room temperature, the reaction is stopped by the addition of 5 μl of a 3% phosphoric acid solution. 10 μl of the reaction is then spotted onto a P30 filtermat washed three times for 5 minutes in 75 mM phosphoric acid and once in methanol prior to drying and scintillation counting.

[2] = biological target: Rsk2(h) (Homo sapiens, UniProt P51812); conditions: read-out: percent residual activity of Rsk2(h)
Procedure: as §1
as §2, with “Rsk2” for “HIPK2”, “30 μM KKKNRTLSVA (SEQ ID NO:212),” for “0.33 mg/ml myelin basic protein,”, “filtermat and” for “filtermat”

[3] = biological target: Abl(h) (Homo sapiens, UniProt P00519); conditions: for Mean (Counts - Blanks) / Activity (% Control) / Counts: 2.5 μM
Procedure: as §1
as §2, with “Abl” for “HIPK2”, “50 μM EAIYAAPFAKKK (SEQ ID NO:206),” for “0.33 mg/ml myelin basic protein,”, “filtermat and” for “filtermat”

[4] = biological target: EphA3(h) (Homo sapiens, UniProt P29320); conditions: read-out: percent residual activity of EphA3(h)
Procedure: as §1
as §2, with “EphA3” for “HIPK2”, “0.1” for “0.33”, “poly(Glu, Tyr) 4:1,” for “myelin basic protein,”, “Filtermat A and” for “P30 filtermat”

[5] = biological target: PAK4(h) (Homo sapiens, UniProt O96013); conditions: read-out: percent residual activity of PAK4(h)
Procedure: as §1
as §2, with “PAK4” for “HIPK2”, “0.8” for “0.33”, “filtermat and” for “filtermat”

[6] = biological target: Met(h) (Homo sapiens, UniProt P08581); conditions: read-out: percent residual activity of Met(h)
Procedure: as §1
In a final reaction volume of 25 μl, Met (h) (5-10 mU) is incubated with 8 mM MOPS pH 7.0, 0.2 mM EDTA, 250 μM KKKSPGEYVNIEFG (SEQ ID NO:207), 10 mM MgAcetate and [y-33P-ATP] (specific activity approx. 500 cpm/pmol, concentration as required). The reaction is initiated by the addition of the MgATP mix. After incubation for 40 minutes at room temperature, the reaction is stopped by the addition of 5 μl of a 3% phosphoric acid solution. 10 μl of the reaction is then spotted onto a P30 filtermat and washed three times for 5 minutes in 75 mM phosphoric acid and once in methanol prior to a drying and scintillation counting.

[7] = 45 micromolar ATP, single replicates
[8] = 45 micromolar ATP, n = 2, read-out: Mean Activity (% Control)
[9] = 45 micromolar ATP, single replicates, read-out: Activity (% Control)
[10] = read-out: percent residual activity of Abl(h)

Abl(h), sequence (P00519 whole entry): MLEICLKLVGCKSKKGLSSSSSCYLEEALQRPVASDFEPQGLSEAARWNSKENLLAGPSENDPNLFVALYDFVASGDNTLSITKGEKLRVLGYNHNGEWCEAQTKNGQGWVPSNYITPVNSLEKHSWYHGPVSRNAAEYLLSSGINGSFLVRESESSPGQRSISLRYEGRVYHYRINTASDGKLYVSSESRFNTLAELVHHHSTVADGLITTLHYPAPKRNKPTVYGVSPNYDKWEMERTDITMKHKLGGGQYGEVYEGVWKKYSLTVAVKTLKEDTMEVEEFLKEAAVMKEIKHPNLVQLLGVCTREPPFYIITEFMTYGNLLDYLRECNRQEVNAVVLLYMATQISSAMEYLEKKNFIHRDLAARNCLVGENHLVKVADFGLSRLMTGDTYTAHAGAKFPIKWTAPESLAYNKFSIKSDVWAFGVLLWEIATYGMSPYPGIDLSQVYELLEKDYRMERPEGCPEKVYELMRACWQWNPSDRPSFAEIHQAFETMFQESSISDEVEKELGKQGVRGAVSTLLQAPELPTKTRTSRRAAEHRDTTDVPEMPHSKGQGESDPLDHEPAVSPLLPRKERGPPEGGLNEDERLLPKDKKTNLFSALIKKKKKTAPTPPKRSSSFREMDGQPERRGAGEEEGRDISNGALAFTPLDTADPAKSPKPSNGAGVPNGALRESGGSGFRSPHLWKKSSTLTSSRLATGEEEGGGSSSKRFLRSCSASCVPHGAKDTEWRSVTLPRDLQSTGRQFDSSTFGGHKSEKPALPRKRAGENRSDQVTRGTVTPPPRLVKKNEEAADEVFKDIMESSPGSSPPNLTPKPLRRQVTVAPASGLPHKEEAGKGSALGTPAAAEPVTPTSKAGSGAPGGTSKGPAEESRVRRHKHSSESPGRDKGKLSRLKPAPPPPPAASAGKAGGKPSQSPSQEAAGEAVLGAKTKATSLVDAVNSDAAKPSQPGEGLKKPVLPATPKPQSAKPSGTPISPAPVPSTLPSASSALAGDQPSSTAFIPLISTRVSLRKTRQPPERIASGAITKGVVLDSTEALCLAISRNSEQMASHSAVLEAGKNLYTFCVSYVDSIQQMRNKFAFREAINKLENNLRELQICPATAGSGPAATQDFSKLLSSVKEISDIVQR
EphA3(h), sequence (P29320 21-983): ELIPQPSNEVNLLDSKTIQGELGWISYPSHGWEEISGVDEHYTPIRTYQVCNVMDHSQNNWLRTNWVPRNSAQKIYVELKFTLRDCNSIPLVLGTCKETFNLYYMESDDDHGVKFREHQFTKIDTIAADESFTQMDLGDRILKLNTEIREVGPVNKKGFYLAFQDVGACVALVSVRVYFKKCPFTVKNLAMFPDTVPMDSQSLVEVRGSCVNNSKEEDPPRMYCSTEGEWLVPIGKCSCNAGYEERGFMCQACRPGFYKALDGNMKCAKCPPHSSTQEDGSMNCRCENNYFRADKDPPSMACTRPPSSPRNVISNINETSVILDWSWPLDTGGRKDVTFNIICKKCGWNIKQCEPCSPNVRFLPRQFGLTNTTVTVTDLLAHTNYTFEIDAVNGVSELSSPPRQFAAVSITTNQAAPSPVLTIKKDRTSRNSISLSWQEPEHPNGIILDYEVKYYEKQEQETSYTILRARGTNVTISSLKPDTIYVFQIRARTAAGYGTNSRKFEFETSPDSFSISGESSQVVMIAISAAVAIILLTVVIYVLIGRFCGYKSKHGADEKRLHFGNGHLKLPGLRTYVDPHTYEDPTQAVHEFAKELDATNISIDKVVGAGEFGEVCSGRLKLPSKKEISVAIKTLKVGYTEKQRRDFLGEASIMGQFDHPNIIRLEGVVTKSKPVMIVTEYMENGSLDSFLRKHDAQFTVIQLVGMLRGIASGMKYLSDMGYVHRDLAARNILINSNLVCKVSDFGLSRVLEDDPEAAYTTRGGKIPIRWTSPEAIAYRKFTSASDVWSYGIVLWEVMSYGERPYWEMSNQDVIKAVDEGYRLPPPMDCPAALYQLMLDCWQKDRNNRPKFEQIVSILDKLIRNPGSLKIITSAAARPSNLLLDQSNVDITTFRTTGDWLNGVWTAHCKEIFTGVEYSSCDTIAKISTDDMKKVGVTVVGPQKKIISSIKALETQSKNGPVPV
Rsk2(h), sequence (P51812 whole entry): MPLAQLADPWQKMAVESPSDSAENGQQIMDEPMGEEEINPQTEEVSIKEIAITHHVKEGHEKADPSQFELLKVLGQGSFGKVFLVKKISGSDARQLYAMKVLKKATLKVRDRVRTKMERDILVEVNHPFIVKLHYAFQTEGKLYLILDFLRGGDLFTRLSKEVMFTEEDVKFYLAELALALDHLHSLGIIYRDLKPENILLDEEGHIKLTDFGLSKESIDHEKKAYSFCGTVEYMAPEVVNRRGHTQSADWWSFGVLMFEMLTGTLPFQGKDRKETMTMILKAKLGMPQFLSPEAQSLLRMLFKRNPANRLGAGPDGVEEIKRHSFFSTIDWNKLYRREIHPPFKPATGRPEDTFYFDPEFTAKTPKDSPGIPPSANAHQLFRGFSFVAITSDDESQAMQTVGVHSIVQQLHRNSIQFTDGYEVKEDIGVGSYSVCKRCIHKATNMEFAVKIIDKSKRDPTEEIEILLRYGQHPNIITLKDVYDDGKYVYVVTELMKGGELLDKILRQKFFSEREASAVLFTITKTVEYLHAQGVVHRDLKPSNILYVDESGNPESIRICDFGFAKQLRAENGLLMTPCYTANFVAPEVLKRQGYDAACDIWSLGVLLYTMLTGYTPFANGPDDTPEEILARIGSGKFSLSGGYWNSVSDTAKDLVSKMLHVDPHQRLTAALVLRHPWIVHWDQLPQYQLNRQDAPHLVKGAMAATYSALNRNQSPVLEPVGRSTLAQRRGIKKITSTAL
HIPK2(h), sequence (Q9H2X6 whole entry): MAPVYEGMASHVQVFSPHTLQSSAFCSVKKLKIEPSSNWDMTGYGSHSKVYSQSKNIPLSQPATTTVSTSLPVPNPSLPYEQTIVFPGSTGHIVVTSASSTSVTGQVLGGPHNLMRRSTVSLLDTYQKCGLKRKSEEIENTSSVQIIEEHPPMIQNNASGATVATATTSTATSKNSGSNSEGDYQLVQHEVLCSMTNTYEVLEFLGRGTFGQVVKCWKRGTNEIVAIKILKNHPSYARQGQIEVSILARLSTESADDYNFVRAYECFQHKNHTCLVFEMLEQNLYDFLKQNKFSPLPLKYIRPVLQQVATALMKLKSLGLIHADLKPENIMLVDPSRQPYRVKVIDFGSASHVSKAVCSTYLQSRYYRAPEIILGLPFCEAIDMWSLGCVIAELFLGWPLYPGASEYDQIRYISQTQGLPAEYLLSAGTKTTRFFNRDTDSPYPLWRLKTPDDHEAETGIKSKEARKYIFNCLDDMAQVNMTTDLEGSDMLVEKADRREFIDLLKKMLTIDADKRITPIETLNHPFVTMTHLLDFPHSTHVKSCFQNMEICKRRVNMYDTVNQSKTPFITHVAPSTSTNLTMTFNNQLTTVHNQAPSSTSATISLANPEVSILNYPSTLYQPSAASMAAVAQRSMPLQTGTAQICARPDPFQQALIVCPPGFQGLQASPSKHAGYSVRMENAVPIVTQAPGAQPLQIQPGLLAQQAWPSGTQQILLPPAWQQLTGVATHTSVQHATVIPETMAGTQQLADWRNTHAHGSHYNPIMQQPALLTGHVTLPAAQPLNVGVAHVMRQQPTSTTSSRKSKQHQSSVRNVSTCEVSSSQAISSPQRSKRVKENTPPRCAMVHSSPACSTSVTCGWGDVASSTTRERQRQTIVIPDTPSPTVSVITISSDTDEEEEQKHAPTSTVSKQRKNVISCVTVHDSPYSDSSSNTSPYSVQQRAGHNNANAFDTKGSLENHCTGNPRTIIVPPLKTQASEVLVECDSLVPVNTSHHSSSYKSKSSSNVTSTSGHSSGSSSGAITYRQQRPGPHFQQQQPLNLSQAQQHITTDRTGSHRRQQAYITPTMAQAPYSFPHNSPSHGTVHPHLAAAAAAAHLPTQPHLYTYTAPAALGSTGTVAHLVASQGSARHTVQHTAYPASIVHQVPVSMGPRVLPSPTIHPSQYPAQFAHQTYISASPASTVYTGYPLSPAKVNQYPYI
PAK4(h), sequence (O96013 whole entry): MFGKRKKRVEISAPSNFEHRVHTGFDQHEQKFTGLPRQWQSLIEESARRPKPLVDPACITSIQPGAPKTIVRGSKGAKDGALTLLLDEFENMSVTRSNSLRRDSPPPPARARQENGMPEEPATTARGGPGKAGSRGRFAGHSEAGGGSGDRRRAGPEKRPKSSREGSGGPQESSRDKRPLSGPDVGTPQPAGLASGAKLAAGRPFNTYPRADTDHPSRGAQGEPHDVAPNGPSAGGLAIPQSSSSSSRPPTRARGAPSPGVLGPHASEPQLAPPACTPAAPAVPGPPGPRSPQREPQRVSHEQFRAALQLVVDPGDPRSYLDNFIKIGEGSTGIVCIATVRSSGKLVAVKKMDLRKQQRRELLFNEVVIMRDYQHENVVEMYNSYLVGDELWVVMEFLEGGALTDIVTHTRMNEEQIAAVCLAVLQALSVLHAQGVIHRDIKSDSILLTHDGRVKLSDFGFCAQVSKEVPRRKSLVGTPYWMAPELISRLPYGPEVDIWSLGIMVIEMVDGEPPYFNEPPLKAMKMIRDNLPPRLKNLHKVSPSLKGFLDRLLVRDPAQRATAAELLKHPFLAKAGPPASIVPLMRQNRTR

Row | Structure (SMILES) | remaining activity at 2.5 µM [1] [%] | remaining activity at 2.5 µM [2] [%] | Mean (Counts - Blanks) ([3]; 45 micromolar ATP) | Activity (% Control) [3, 7] [% Control] | Counts [3, 7] | remaining activity at 2.5 µM [3, 8] [%] | remaining activity at 2.5 µM [3, 9] [%] | remaining activity at 2.5 µM [3, 10] [%] | remaining activity at 2.5 µM [4] [%] | remaining activity at 2.5 µM [5] [%] | remaining activity at 2.5 µM [6] [%]
1 | CN1CCCC1CCNC(=O)c1cn2c3c(c(N4CCC(c5cnccn5)C4)c(F)cc3c1=O)Oc1cc3ccccc3cc1-2 (stereo not shown) [Compound A-1] | 106 | 60 | 12522 | 25 | 15236 and 14630 | 26 | 27 | 26 | 91 | 99 | 132
2 | CC(=O)N1CCN(c2ccc3c(=O)c(C(=O)NCCN4CCCC4)c4n(C)c5ccccc5n4c3n2)CC1 [Compound B-1] | 111 | 106 | 47944 | 98 | 51051 and 49659 | 100 | 101 | 100 | 118 | 96 | 115
